Here are results for 2 compounds from patent US6610304B1, “Liposomes containing multiple branch peptide constructions for use against human immunodeficiency virus” (priority 1997, dated 2003).

Data set [1] can be described thus: Toxicity, intravenous injection into mice. Format: in vivo. The following applies: 50 mg/kg of SPC3, immediately, after 12 or 24 hours. On the procedure: To determine toxicity, the 250 nm dialysed liposomes containing SPC3 were injected intravenously into 8 mice at a dose of 50 mg/kg of SPC3.
The next data set relates to HIV-1 Hx10 clone. Description: Fusion assay: inhibition of syncytium formation. The class given is cell-based. The following applies: concentration 10^−6 M, C8166 cells. On the procedure: C8166 cells were incubated at 37° C. with HIV-1 Hx10 clone (B. Hahn, University of Alabama, USA) in the presence of test substances (SPC3, SPC RL, empty liposomes of 110 nm and 250 nm average size, and dialysed and non-dialysed liposomes of those sizes containing SPC3) and in the absence of any test substance (control). The samples were inspected by phase contrast microscopy and syncytia were scored after 48 and 72 hours of incubation in 96-well flat-bottomed cultured plates. Experiments were performed three times in duplicate and identical results were obtained. The presence of syncytia is indicated by + signs. allocated as follows: […]

The next data set concerns HIV-1 Hx10clone. As to the kind of experiment: Infection assay: inhibition of cell infection (cell-free p24 by ELISA). The class given is cell-based. Particulars: C8166 cells, supernatant ELISA, no unit or concentration given. On the procedure:
C8166 cells were washed once in RPMI medium and then infected with HIV-1 Hx10clone by incubation at 37° C. for 2 hours in the presence of test substances (SPC3, SPC RL, empty liposomes of 110 nm and 250 nm average size, and dialysed and non-dialysed liposomes of those sizes containing SPC3) and in the absence of any test substance (control). After incubation, the virus was removed and the cells were incubated with fresh medium at 37° C. in the presence of the test substances or in the absence of any test substance (control). Infections and cell cultures were in 96-well culture plates. The production of HIV was monitored by measuring the concentration of cell-free p24 in the supernatant by ELISA, as described by Gluschankof et al., 1997, using the AMPAK amplification kit (DAKO. Trappes, France). The results are shown in Table 2 below, and the day 4 results are also shown graphically in the accompanying drawing.
On the technique in general: ELISA stands for enzyme-linked immunosorbent assay.

As to `C[C@H](NC(=O)[C@H](CCCNC(=N)N)NC(=O)CNC(=O)[C@@H]1CCCN1C(=O)CN)C(=O)N[C@@H](Cc1ccccc1)C(=O)NCCCC[C@H](NC(=O)[C@H](Cc1ccccc1)NC(=O)[C@H](C)NC(=O)[C@H](CCCNC(=N)N)NC(=O)CNC(=O)[C@@H]1CCCN1C(=O)CN)C(=O)NCCCC[C@H](NC(=O)[C@H](CCCCNC(=O)[C@H](Cc1ccccc1)NC(=O)[C@H](C)NC(=O)[C@H](CCCNC(=N)N)NC(=O)CNC(=O)[C@@H]1CCCN1C(=O)CN)NC(=O)[C@H](Cc1ccccc1)NC(=O)[C@H](C)NC(=O)[C@H](CCCNC(=N)N)NC(=O)CNC(=O)[C@@H]1CCCN1C(=O)CN)C(=O)NCCCC[C@H](NC(=O)[C@H](CCCCNC(=O)[C@H](CCCCNC(=O)[C@H](Cc1ccccc1)NC(=O)[C@H](C)NC(=O)[C@H](CCCNC(=N)N)NC(=O)CNC(=O)[C@@H]1CCCN1C(=O)CN)NC(=O)[C@H](Cc1ccccc1)NC(=O)[C@H](C)NC(=O)[C@H](CCCNC(=N)N)NC(=O)CNC(=O)[C@@H]1CCCN1C(=O)CN)NC(=O)[C@H](CCCCNC(=O)[C@H](Cc1ccccc1)NC(=O)[C@H](C)NC(=O)[C@H](CCCNC(=N)N)NC(=O)CNC(=O)[C@@H]1CCCN1C(=O)CN)NC(=O)[C@H](Cc1ccccc1)NC(=O)[C@H](C)NC(=O)[C@H](CCCNC(=N)N)NC(=O)CNC(=O)[C@@H]1CCCN1C(=O)CN)C(=O)NCCC(=O)O` [SPC3, (GPGRAF)8-(K)4-(K)2-K-βA-OH], the symptoms of toxicity result in data set [1] is recorded as “symptoms of toxicity were observed”.

For (RQGYSPL)8-(K)4-(K)2-K-βA-OH [SPC RL], the “Syncitia Formation” value in the data set on HIV-1 Hx10 clone (Day 2 post-infection) and in the data set with HIV-1 Hx10 clone (Day 3 post-infection) was “+/− (+/−=>95 % decrease)” in each case. In addition, the p24 production in the data set with HIV-1 Hx10clone (Day 3 post-infection) is reported as 0.441; with HIV-1 Hx10clone (Day 4 post-infection) it was 0.463.
